According to patent US20200024278A1, “COMPOSITION COMPRISING ANTIBIOTIC COMPOUND AND AN HETEROCYCLIC COMPOUND AND THEIR USE IN PREVENTING OR TREATING BACTERIAL INFECTIONS” (MUTABILIS, priority 2016, published 2020):

Legend:
Assay in all cases: MIC, broth microdilution (CLSI), substance alone or ATB combined with compound at 4 or 8 μg/mL
ECL P99 = format: cell-based, E. cloacae; conditions: ECL P99; for MIC ATB combined with Example: Example @4 μg/ml
Procedure, shortened: (§1)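 Antibiotic MICs were determined in presence of fixed compound at 4 or 8 μg/mL, and compound MICs alone, by visual growth inhibition. Inoculum 5·10^5 CFU/mL in ca-MHB, incubated 35 °C for 16-20 h per CLSI-M7-A7. Glucose-6-phosphate (25 μg/ml) added when fosfomycin was tested.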

ABA 107292 = format: cell-based, A. baumannii; conditions: Acinetobacter baumannii, substance alone, read-out: MIC
Procedure, shortened: as §1

ABA 19606 = format: cell-based, A. baumannii; conditions: Acinetobacter baumannii, substance alone, read-out: MIC
Procedure, shortened: as §1

PAE UFR90 = format: cell-based, P. aeruginosa; conditions: PAE UFR90; for MIC ATB combined with Example: Example @4 μg/ml; for MIC ATB combined with Example compound: compound @4 μg/ml
Procedure, shortened: as §1

PAE UFR48 = format: cell-based, P. aeruginosa; conditions: PAE UFR48; for MIC ATB combined with Example: Example @4 μg/ml; for MIC ATB combined with Example compound: compound @4 μg/ml
Procedure, shortened: as §1

PAE 105250 = format: cell-based, P. aeruginosa; conditions: PAE 105250; for MIC ATB combined with Example: Example @4 μg/ml; for MIC ATB combined with Example compound: compound @4 μg/ml
Procedure, shortened: as §1

ECO 190317 = format: cell-based, E. coli; conditions: ECO 190317; for MIC ATB combined with Example: Example @4 μg/ml
Procedure, shortened: as §1

ECO UFR39 = format: cell-based, E. coli; conditions: ECO UFR39; for MIC ATB combined with Example: Example @4 μg/ml; for MIC ATB combined with Example compound: compound @4 μg/ml
Procedure, shortened: as §1

KPN UFR42 = format: cell-based, K. pneumoniae; conditions: KPN UFR42; for MIC ATB combined with Example: Example @4 μg/ml; for MIC ATB combined with Example compound: compound @4 μg/ml
Procedure, shortened: as §1

KPN 6299 = format: cell-based, K. pneumoniae; conditions: for MIC ATB combined with Example: Example @4 μg/ml
Procedure, shortened: as §1

KPN BAA-1898 = format: cell-based, K. pneumoniae; conditions: KPN BAA-1898; for MIC ATB combined with Example: Example @4 μg/ml
Procedure, shortened: as §1

SAU 29213 = format: cell-based, S. aureus; conditions: for MIC ATB combined with Example / MIC ATB combined with Example compound: SAU 29213; for MIC ATB combined with Example: Example @4 μg/ml; for MIC ATB combined with Example compound: compound @4 μg/ml
Procedure, shortened: as §1

SPN 49619 = format: cell-based, S. pneumoniae; conditions: SPN 49619; for MIC ATB combined with Example: Example @4 μg/ml; for MIC ATB combined with Example compound: compound @4 μg/ml
Procedure, shortened: as §1

[1] = Pseudomonas aeruginosa, substance alone, read-out: MIC
[2] = Escherichia coli, substance alone, read-out: MIC

Structure (SMILES): O=C1N2CC(n3cccn3)=C[C@H](C2)N1OS(=O)(=O)[O-].[Na+] [Example 15, sodium [(5R)-7-oxo-3-pyrazol-1-yl-1,6-diazabicyclo[3.2.1]oct-3-en-6-yl] sulfate]
- MIC ATB combined with Example (ECL P99; ATB ATM): <0.031 µg/mL
- MIC ATB combined with Example (ECL P99; ATB FEP): <0.031 µg/mL
- MIC ATB combined with Example (ECL P99; ATB FOS): <=0.125 μg/mL
- MIC ATB combined with Example (ECL P99; ATB MEM): <0.031 µg/mL
- MIC ATB combined with Example (ECL P99; ATB PIP): <0.031 µg/mL
- MIC (ECL P99; Enterobacter cloacae, substance alone, read-out: MIC): 2 µg/mL
- MIC ATB combined with Example compound (ECL P99; MIC of CIP, compound @4 μg/ml): <=0.031 μg/mL
- MIC (ABA 107292): > 32 µg/mL
- MIC (ABA 19606): > 32 µg/mL
- MIC ATB combined with Example (PAE UFR90; ATB ATM): 4 µg/mL
- MIC ATB combined with Example (PAE UFR90; ATB FEP): 2 µg/mL
- MIC ATB combined with Example (PAE UFR90; ATB FOS): 8 µg/mL
- MIC ATB combined with Example (PAE UFR90; ATB MEM): 1 µg/mL
- MIC ATB combined with Example (PAE UFR90; ATB PIP): 16 µg/mL
- MIC ATB combined with Example compound (PAE UFR90; MIC of CIP): 1 µg/mL
- MIC ATB combined with Example compound (PAE UFR90; MIC of CPO): 4 µg/mL
- MIC (PAE UFR90; [1]): > 32 µg/mL
- MIC ATB combined with Example (PAE UFR48; ATB ATM): 8 µg/mL
- MIC ATB combined with Example (PAE UFR48; ATB FEP): 32 µg/mL
- MIC ATB combined with Example (PAE UFR48; ATB FOS): 32 µg/mL
- MIC ATB combined with Example (PAE UFR48; ATB MEM): 0.5 µg/mL
- MIC ATB combined with Example (PAE UFR48; ATB PIP): 32 µg/mL
- MIC ATB combined with Example compound (PAE UFR48; MIC of CIP): 4 µg/mL
- MIC ATB combined with Example compound (PAE UFR48; MIC of CPO): >32 µg/mL
- MIC (PAE UFR48; [1]): > 32 µg/mL
- MIC ATB combined with Example (PAE 105250; ATB ATM): 8 µg/mL
- MIC ATB combined with Example (PAE 105250; ATB FEP): 8 µg/mL
- MIC ATB combined with Example (PAE 105250; ATB FOS): >128 µg/mL
- MIC ATB combined with Example (PAE 105250; ATB MEM): 2 µg/mL
- MIC ATB combined with Example (PAE 105250; ATB PIP): 32 µg/mL
- MIC ATB combined with Example compound (PAE 105250; MIC of CIP): 0.125 µg/mL
- MIC ATB combined with Example compound (PAE 105250; MIC of CPO): 16 µg/mL
- MIC (PAE 105250; [1]): > 32 µg/mL
- MIC ATB combined with Example (ECO 190317; ATB ATM): <0.031 µg/mL
- MIC ATB combined with Example (ECO 190317; ATB FEP): <0.031 µg/mL
- MIC ATB combined with Example (ECO 190317; ATB FOS): <0.125 µg/mL
- MIC ATB combined with Example (ECO 190317; ATB MEM): <0.031 µg/mL
- MIC ATB combined with Example (ECO 190317; ATB PIP): <0.031 µg/mL
- MIC (ECO 190317; [2]): 1 µg/mL
- MIC ATB combined with Example compound (ECO 190317; MIC of CIP, compound @4 μg/ml): <0.031 µg/mL
- MIC ATB combined with Example (ECO UFR39; ATB ATM): <0.031 µg/mL
- MIC ATB combined with Example (ECO UFR39; ATB FEP): <0.031 µg/mL
- MIC ATB combined with Example (ECO UFR39; ATB FOS): <=0.125 μg/mL
- MIC ATB combined with Example (ECO UFR39; ATB MEM): <0.031 µg/mL
- MIC ATB combined with Example (ECO UFR39; ATB PIP): <0.031 µg/mL
- MIC (ECO UFR39; [2]): 2 µg/mL
- MIC ATB combined with Example compound (ECO UFR39; MIC of CIP): <=0.031 μg/mL
- MIC ATB combined with Example compound (ECO UFR39; MIC of CPO): <=0.031 μg/mL
- MIC ATB combined with Example (KPN UFR42; ATB ATM): <0.031 µg/mL
- MIC ATB combined with Example (KPN UFR42; ATB FEP): <0.031 µg/mL
- MIC ATB combined with Example (KPN UFR42; ATB FOS): <=0.125 μg/mL
- MIC ATB combined with Example (KPN UFR42; ATB MEM): <0.031 µg/mL
- MIC ATB combined with Example (KPN UFR42; ATB PIP): <0.031 µg/mL
- MIC (KPN UFR42; Klebsiella pneumoniae, substance alone, read-out: MIC): 4 µg/mL
- MIC ATB combined with Example compound (KPN UFR42; MIC of CIP): >32 µg/mL
- MIC ATB combined with Example compound (KPN UFR42; MIC of CPO): <=0.031 μg/mL
- MIC ATB combined with Example (KPN 6299; ATB ATM): <0.031 µg/mL
- MIC ATB combined with Example (KPN 6299; ATB FEP): <=0.25 μg/mL
- MIC ATB combined with Example (KPN 6299; ATB FOS): <=0.125 μg/mL
- MIC ATB combined with Example (KPN 6299; ATB MEM): <0.031 µg/mL
- MIC ATB combined with Example (KPN 6299; ATB PIP): <0.031 µg/mL
- MIC ATB combined with Example compound (KPN 6299; MIC of CIP, compound @4 μg/ml): 0.063 µg/mL
- MIC ATB combined with Example (KPN BAA-1898; ATB ATM): <0.031 µg/mL
- MIC ATB combined with Example (KPN BAA-1898; ATB FEP): <0.031 µg/mL
- MIC ATB combined with Example (KPN BAA-1898; ATB FOS): 0.25 µg/mL
- MIC ATB combined with Example (KPN BAA-1898; ATB MEM): <0.031 µg/mL
- MIC ATB combined with Example (KPN BAA-1898; ATB PIP): <0.031 µg/mL
- MIC (KPN BAA-1898; Klebsiella pneumoniae, BAA1898, substance alone, read-out: MIC): 4 µg/mL
- MIC ATB combined with Example compound (KPN BAA-1898; MIC of CIP, compound @4 μg/ml): <=0.031 μg/mL
- MIC ATB combined with Example (SAU 29213; ATB ATM): >32 µg/mL
- MIC ATB combined with Example (SAU 29213; ATB FEP): 0.5 µg/mL
- MIC ATB combined with Example (SAU 29213; ATB FOS): 0.25 µg/mL
- MIC ATB combined with Example (SAU 29213; ATB MEM): <=0.031 μg/mL
- MIC ATB combined with Example (SAU 29213; ATB PIP): 0.5 µg/mL
- MIC ATB combined with Example compound (SAU 29213; MIC of CIP): <=0.031 μg/mL
- MIC ATB combined with Example compound (SAU 29213; MIC of CLI): <0.0010 µg/mL
- MIC ATB combined with Example compound (SAU 29213; MIC of CPO): 0.063 µg/mL
- MIC ATB combined with Example compound (SAU 29213; MIC of DAP): <=0.0020 μg/mL
- MIC ATB combined with Example compound (SAU 29213; MIC of ERY): <0.0020 µg/mL
- MIC ATB combined with Example compound (SAU 29213; MIC of LZD): 0.016 µg/mL
- MIC ATB combined with Example compound (SAU 29213; MIC of RIF): 0.0039 µg/mL
- MIC ATB combined with Example compound (SAU 29213; MIC of SYN): 0.063 µg/mL
- MIC ATB combined with Example compound (SAU 29213; MIC of VAN): 0.5 µg/mL
- MIC (SAU 29213; Staphylococcus aureus, substance alone, SAU 29213 (MSSA 29213), read-out: MIC): 4 µg/mL
- MIC ATB combined with Example (SPN 49619; ATB ATM): >32 µg/mL
- MIC ATB combined with Example (SPN 49619; ATB FEP): 0.063 µg/mL
- MIC ATB combined with Example (SPN 49619; ATB FOS): 16 µg/mL
- MIC ATB combined with Example (SPN 49619; ATB MEM): <=0.031 μg/mL
- MIC ATB combined with Example (SPN 49619; ATB PIP): 0.5 µg/mL
- MIC ATB combined with Example compound (SPN 49619; MIC of CIP): 0.25 µg/mL
- MIC ATB combined with Example compound (SPN 49619; MIC of CLI): 0.031 µg/mL
- MIC ATB combined with Example compound (SPN 49619; MIC of CPO): <=0.031 μg/mL
- MIC ATB combined with Example compound (SPN 49619; MIC of DAP): 0.125 µg/mL
- MIC ATB combined with Example compound (SPN 49619; MIC of ERY): 0.063 µg/mL
- MIC ATB combined with Example compound (SPN 49619; MIC of LZD): 0.25 µg/mL
- MIC ATB combined with Example compound (SPN 49619; MIC of RIF): 0.0078 µg/mL
- MIC ATB combined with Example compound (SPN 49619; MIC of SYN): 0.5 µg/mL
- MIC ATB combined with Example compound (SPN 49619; MIC of VAN): 0.125 µg/mL
- MIC (SPN 49619; Streptococcus pneumoniae, substance alone, read-out: MIC): 8 µg/mL
